Assay results published in patent US20250188043A1 (ReproNovo SA, priority 2023, published 2025).
Read-outs that look alike come from different tables or passages of the source.

Assays:
[1] = Long term storage stability of crystalline Form A leflutrozole; format: physicochemical
Method: The test for determination of the amount of related substance impurities uses reverse phase HPLC analysis with UV detection (230 nm). The solvents are acetonitrile/water/diammonium hydrogen phosphate buffer/O-phosphirc acid 85%. The column is Macherey Nagel, Nucleosil 100 C18HD (length=150 mm, internal diameter 3.0 mm) or equivalent L1 USP HPLC Columns.
Stability data under accelerated conditions are for up to 6 months at 40° C./75% RH and up to 3 months at 50° C. […].
Packaging A: Double low density polyethylene bags in fiber drugms; water permeation <14.0 mg/day/L. Packaging D: Brown glass bottles type C sealed in triple laminated foil bags or quadruple laminated foil bags of type B; water permeation <0.5 mg/day/L. Packaging H: Double polythene bags, sealed, in 400 mL mini-metallic drugs; water permeation 5 mg/day/L. Packaging J: HDPE bottles from Nalgene (30 mL) with polypropylene screw caps and sealed in alubags of type B. Packaging K: Polyethylene bag containing the drug inside quadruple laminated foil bags; water permeation <0.5 mg/day/L.

[2] = biological target: P-glycoprotein (Homo sapiens, UniProt P08183); experiment: P-glycoprotein inhibition; format: in vitro ADME; conditions: at concentrations above 200 μM
[3] = biological target: T1, breast cancer resistance protein (Homo sapiens, UniProt Q9UNQ0); experiment: Breast cancer resistance protein inhibition; format: in vitro ADME; conditions: at concentrations above 200 μM
T1 sequence (Q9UNQ0 1-655): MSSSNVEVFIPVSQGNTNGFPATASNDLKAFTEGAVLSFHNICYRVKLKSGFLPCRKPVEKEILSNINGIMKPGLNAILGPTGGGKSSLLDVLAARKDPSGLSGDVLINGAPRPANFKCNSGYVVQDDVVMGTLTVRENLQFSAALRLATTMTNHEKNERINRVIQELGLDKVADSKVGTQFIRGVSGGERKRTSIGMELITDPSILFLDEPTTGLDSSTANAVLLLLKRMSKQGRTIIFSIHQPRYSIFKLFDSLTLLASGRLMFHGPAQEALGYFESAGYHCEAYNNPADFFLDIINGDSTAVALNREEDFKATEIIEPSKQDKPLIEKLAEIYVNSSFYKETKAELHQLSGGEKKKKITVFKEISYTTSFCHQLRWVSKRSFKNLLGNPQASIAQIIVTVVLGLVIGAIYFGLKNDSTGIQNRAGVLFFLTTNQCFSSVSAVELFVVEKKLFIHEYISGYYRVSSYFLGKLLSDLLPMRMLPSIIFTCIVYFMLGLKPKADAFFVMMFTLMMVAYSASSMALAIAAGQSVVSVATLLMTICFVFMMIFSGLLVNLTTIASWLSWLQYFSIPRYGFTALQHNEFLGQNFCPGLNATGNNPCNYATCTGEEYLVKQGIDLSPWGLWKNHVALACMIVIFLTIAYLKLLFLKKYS

[4] = biological target: T2, CYP2C8 (Homo sapiens, UniProt P10632); experiment: CYP inhibition, pooled human liver microsomes, probe substrates; format: in vitro ADME; conditions: up to 100 μM
T2 construct: assessed by pooled human liver microsomes using enzyme selective probe substrates; from tissue; host or cells: pooled human liver microsomes
T2 sequence (P10632 1-490): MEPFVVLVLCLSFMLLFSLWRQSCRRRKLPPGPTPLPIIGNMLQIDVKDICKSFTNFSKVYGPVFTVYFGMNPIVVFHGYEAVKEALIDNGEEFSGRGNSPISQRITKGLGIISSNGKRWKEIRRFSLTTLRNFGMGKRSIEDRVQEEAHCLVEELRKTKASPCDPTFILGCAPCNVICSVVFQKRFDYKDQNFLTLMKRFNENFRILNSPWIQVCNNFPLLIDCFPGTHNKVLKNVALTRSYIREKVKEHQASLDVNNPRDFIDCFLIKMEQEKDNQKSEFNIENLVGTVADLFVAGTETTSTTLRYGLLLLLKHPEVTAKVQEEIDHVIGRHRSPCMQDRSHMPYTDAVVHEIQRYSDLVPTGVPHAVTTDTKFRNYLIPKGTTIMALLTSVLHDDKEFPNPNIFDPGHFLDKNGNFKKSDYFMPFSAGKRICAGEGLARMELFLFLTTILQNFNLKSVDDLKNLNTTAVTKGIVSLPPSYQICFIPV

[5] = biological target: T3, CYP2D6 (Homo sapiens, UniProt P10635); experiment: as above; format: in vitro ADME; conditions: up to 100 μM
T3 construct: assessed by pooled human liver microsomes using enzyme selective probe substrates; from tissue; host or cells: pooled human liver microsomes

[6] = biological target: T4, CYP2A6 (Homo sapiens, UniProt P11509); experiment: as above; format: in vitro ADME
T4 construct: assessed by pooled human liver microsomes using enzyme selective probe substrates; from tissue; host or cells: pooled human liver microsomes
T4 sequence (P11509 1-494): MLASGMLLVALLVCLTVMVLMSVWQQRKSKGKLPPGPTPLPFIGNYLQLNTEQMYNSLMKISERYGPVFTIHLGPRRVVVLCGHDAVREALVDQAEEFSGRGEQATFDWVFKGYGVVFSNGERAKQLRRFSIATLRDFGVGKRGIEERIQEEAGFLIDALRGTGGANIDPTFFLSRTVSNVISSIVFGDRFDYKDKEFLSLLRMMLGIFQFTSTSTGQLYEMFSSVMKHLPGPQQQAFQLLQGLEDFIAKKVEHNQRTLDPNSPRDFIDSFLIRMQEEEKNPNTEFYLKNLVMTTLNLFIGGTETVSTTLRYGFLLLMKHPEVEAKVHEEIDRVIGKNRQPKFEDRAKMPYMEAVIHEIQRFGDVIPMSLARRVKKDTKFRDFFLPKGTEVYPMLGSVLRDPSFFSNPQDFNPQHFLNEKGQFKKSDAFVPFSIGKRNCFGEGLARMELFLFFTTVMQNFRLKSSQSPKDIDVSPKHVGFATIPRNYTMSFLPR

[7] = Pharmacokinetics in rats; format: in vivo; conditions: for AUC(0-inf) / half-life / AUC(0-t) / Cmax: 1 mg/kg; for AUC(0-t): AUC 0-24^1/48^2 h
[8] = 36 months, 25° C., double polyethylene liner and black polyethylene keg
[9] = more than 36 months at room temperature
[10] = rat, in vivo, iv, 1 mg/kg i.v., PEG200-0.9% Saline-solution 40/60
[11] = rat, in vivo, po, 1 mg/kg p.o., PEG200-water-solution 40/60
[12] = rat, in vivo, po, 1 mg/kg p.o., Suspension 0.5% HPC

Sequence of P-glycoprotein (P08183 whole entry): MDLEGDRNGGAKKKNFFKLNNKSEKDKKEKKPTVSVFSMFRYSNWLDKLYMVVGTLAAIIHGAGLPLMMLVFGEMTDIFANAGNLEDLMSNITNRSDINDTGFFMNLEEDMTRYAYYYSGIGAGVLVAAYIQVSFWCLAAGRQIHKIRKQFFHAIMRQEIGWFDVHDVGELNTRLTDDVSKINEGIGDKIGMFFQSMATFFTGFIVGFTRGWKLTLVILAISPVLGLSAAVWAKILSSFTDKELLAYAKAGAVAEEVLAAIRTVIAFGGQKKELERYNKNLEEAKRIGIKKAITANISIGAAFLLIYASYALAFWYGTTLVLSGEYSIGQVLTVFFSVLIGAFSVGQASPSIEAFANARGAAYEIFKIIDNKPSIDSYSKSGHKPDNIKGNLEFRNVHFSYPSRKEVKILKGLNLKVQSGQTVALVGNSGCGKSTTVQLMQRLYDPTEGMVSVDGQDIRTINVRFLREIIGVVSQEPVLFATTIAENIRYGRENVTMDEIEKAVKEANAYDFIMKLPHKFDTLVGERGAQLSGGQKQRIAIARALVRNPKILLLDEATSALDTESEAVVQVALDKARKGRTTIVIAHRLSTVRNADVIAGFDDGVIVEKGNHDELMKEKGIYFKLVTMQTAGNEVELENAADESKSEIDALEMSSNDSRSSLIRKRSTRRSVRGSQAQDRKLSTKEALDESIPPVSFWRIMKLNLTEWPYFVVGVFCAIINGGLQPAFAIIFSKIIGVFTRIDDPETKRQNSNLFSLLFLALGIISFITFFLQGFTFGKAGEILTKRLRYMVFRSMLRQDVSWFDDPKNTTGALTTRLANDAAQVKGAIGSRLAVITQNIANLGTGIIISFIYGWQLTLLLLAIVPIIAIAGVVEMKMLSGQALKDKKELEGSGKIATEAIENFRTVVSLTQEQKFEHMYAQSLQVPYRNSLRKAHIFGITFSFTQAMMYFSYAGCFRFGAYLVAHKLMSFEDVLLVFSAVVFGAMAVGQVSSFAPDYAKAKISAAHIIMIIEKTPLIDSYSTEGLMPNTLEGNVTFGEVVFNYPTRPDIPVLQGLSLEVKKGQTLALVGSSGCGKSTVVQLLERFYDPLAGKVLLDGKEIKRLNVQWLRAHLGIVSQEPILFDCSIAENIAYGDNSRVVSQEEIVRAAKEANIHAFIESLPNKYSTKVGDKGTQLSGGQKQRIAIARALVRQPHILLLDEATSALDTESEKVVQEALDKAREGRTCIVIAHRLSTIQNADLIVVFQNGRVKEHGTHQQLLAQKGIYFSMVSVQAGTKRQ
T3 sequence (P10635 whole entry): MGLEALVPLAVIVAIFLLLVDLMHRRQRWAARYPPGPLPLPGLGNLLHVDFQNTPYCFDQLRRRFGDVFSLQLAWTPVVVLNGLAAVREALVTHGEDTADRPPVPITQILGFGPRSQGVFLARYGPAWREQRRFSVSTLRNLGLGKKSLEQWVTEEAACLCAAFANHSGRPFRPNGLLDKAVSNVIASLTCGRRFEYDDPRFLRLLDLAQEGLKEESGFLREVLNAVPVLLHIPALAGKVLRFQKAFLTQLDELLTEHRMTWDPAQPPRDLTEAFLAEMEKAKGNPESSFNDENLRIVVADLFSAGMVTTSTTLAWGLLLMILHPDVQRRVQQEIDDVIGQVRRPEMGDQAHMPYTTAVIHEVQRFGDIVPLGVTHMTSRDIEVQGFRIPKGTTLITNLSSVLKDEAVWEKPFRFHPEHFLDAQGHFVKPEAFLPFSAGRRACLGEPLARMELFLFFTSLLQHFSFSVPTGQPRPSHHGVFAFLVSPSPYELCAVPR

N#Cc1ccc(C(F)(c2ccc(C#N)cc2)n2cncn2)cc1 [Form A leflutrozole, 4-[(4-cyanophenyl)-fluoro-(1,2,4-triazol-1-yl)methyl]benzonitrile]
Combined related substance impurities ([1]; 5° C. ± 3° C. in packaging D, Initial): 0.60%
Combined related substance impurities ([1]; 25° C./60% RH in packaging K, 3 months): 0.60%
Combined related substance impurities ([1]; 25° C./60% RH in packaging K, Initial): 0.60%
impurity Q2 (substance of unknown structure) [1, 8]: 0.11 % w/w
impurity compound of formula (III) [1, 8]: 0.14 % w/w
Combined related substance impurities ([1]; 40° C./75% RH in packaging A, 3 months): 0.60%
Combined related substance impurities ([1]; 40° C./75% RH in packaging A, Initial): 0.60%
Combined related substance impurities ([1]; 40° C./75% RH in packaging D, Initial): 0.60%
Combined related substance impurities ([1]; 40° C./75% RH in packaging K, 6 months): 0.60%
Combined related substance impurities ([1]; 40° C./75% RH in packaging K, Initial): 0.60%
Combined related substance impurities ([1]; 50° C./≤30% RH in packaging D, Initial): 0.60%
Combined related substance impurities ([1]; 50° C./≤30% RH in packaging K, Initial): 0.60%
stability of drug substance on storage (in words) ([1]; long term and accelerated storage conditions): very stable under all storage conditions
individual impurity developed [1, 9]: ≤ 0.8 % HPLC peak area
total amount of impurities [1, 9]: ≤ 2.0 % of the total HPLC peak area
time stable at room temperature ([1]; room temperature): more than 36 months
Combined related substance impurities ([1]; −20° C. ± 5° C./ambient RH in packaging D, Initial): 0.60%
Combined related substance impurities ([1]; −20° C. ± 5° C./ambient RH in packaging K, Initial): 0.60%

N#Cc1ccc(C(F)(c2ccc(C#N)cc2)n2cncn2)cc1 [leflutrozole, 4-[(4-cyanophenyl)-fluoro-(1,2,4-triazol-1-yl)methyl]benzonitrile]
inhibition of P-glycoprotein [2]: not determined to be an inhibitor
inhibition of breast cancer resistance protein [3]: not determined to be an inhibitor
IC50 [4]: > 50 µM
IC50 [5]: > 50 µM
Ki [6]: 2.56 µM
BAV 0-inf ([7]; 1 mg/kg p.o., Suspension 0.5% HPC): ≥100%
clearance [7, 10]: 0.383 mL/min
AUC(0-inf) [7, 10]: 123 µM·h
half-life ([7]; rat, in vivo, iv, 1 mg/kg i.v., PEG200-0.9% Saline-solution 40/60, read-out: T1/2 (converted)): 33.1 h
AUC(0-t) [7, 10]: 79.4 µM·h
AUC(0-inf) [7, 11]: 143 µM·h
Cmax [7, 11]: 1750 nM
half-life ([7]; rat, in vivo, po, 1 mg/kg p.o., PEG200-water-solution 40/60, read-out: T1/2 (converted)): 49.7 h
AUC(0-inf) [7, 12]: 245 µM·h
Cmax [7, 12]: 1810 nM
half-life ([7]; rat, in vivo, po, 1 mg/kg p.o., Suspension 0.5% HPC, read-out: T1/2 (converted)): 101 h
AUC(0-t) [7, 11]: 70.2 µM·h
AUC(0-t) [7, 12]: 163 µM·h
half-life ([7]; rat, in vivo, po, read-out: half-life (converted)): 101 h
